Assay [1] addresses T1, human recombinant histamine H2 receptor (Homo sapiens, UniProt P25021).
T1 construct: expressed in transfected cells; host or cells: CHO-K1 cells
Put plainly: Histamine H2 radioligand binding ([125I]Aminopotentidine). The note with it: for inhibition at 0.3 µM: 0.3 μM compound. How it is done:
Non-specific binding was estimated in the presence of 3 μM Tiotidine. […] Biochemical assay results are presented as the percent inhibition of specific binding in Table 5.
Non-specific binding was estimated in the presence of 3 μM Tiotidine. […] Compounds were screened at 1 μM, using 1% DMSO as vehicle. Biochemical assay results are presented as the percent inhibition of specific binding in Table 6.

The target of assay [2] is T2, human recombinant histamine H1 receptor (Homo sapiens, UniProt P35367).
T2 construct: expressed in transfected cells; host or cells: CHO cells
Put plainly: Histamine H1 radioligand binding ([3H]Pyrilamine). The settings on record: for inhibition at 0.03 µM: 0.03 μM compound; for inhibition at 0.1 µM: 0.1 μM compound. How it is done: To evaluate in radioligand binding assays the activity of compounds of the invention, human recombinant histamine H1 receptor expressed in Chinese hamster ovary (CHO) cells (De Backer M D et al. Biochem. Biophys. Res Comm. 197(3):1601, 1993) in a modified Tris-HCl buffer (50 mM Tris-HCl, pH 7.4, 2 mM MgCl2, 100 mM NaCl, 250 mM Sucrose) were used. […] Non-specific binding was estimated in the presence of 1 μM pyrilamine. Receptor proteins were filtered and washed, the filters were then counted to determine [^3H]pyrilamine specifically bound. […] Biochemical assay results are presented as the percent inhibition of specific binding in Table 5.
To evaluate in radioligand binding assays the activity of compounds of the invention, human recombinant histamine H1 receptor expressed in Chinese hamster ovary (CHO) cells (De Backer, M. D. et al., Biochem. Biophys. Res. Comm. 197(3):1601, 1993) in a modified Tris-HCl buffer (50 mM Tris-HCl, pH 7.4, 2 mM MgCl2, 100 mM NaCl, 250 mM Sucrose) was used. […] Non-specific binding was estimated in the presence of 1 μM pyrilamine. Receptor proteins were filtered and washed, the filters were then counted to determine [^3H]Pyrilamine specifically bound. Compounds were screened at 1 μM, using 1% DMSO as vehicle. Biochemical assay results are presented as the percent inhibition of specific binding in Table 6.

The target of assay [3] is T3, human recombinant dopamine D2L receptor (Homo sapiens, UniProt P14416).
T3 construct: expressed in transfected cells; host or cells: CHO cells
The assay is described as follows: Dopamine D2L radioligand binding ([3H]Spiperone). The note with it: percent inhibition of specific binding. As for the experimental part:
Non-specific binding was estimated in the presence of 10 μM Haloperidol. Receptor proteins were filtered and washed, the filters were then counted to determine [^3H]Spiperone specifically bound. […] Biochemical assay results are presented as the percent inhibition of specific binding in Table 6.

Assay [4] has as its system synaptosomes of cortex of rat brain. The assay is described as follows: Glutamate-induced 45Ca2+ uptake into synaptosomes. The class given is biochemical, Wistar rats. The note with it: for % Ca of control (control-100%), glutamate-induced 45Ca2+ uptake into synaptosomes: rat cortex synaptosomes. As for the experimental part: Synaptosomes were obtained from cerebral cortex of newborn (9-10 days) Wistar rats using standard Hajos method. The brain was homogenized with 10 volumes of cooled 0.32 M sucrose at 900 rpm. The homogenate was centrifuged at 1500 g for 10 min. and the resulted supernatant was centrifuged at 10000 g for 20 min. The radioactive label was accumulated by suspension of the synaptosomal P2-fraction in the incubation buffer A having the following composition: 132 mM NaCl, 5 mM KCl, 5 mM HEPES, 10 mM glucose, pH 7.4 (protein concentration of approximately 1.5-2 mg/ml). The mixture was further incubated for 5 min with 200 μM glutamate at 37° C. and then ^45Ca^2+ uptake was stopped by filtration through GF/B filters (Whatman, England) followed by three washes with cold buffer B (145 mM KCl, 10 mM Tris, 5.4 mM Trilon B, pH 7.4). The radioactivity probes were analyzed by fluid scintillation beta-analyzer (TriCarb, Perkin Elmer). All tests were performed in three parallel trials in 2-3 independent experiments. The amount of ^45Ca^2+ uptake was estimated by calculating the difference of radioactive label during the stimulation with glutamate and without the stimulation with agonist.
Specific ^45Ca^2+ uptake was estimated using the following equation: K(43/21)=[(Ca4−Ca3)/(Ca2−Ca1)]100%, where
Ca1—^45Ca^2+ uptake for the Control (without glutamate and the compound tested),
[…] glutamate-induced ^45Ca^2+ uptake (glutamate only),
Ca3—^45Ca^2+ uptake in the presence of the compound tested (without glutamate),
Ca4—^45Ca^2+ uptake in the presence of glutamate and the testing compound.
Statistical analysis of the results was performed using Student's t-test.

The test system of a further assay is mice. Put plainly: recognition test of new location of a known object (spatial memory). The class given is in vivo.
[5] abbreviates: percent inhibition of specific binding, screened at 1 μM, read-out: Inhibition of ligand binding, Hist. H2.
Where [6] appears, read: percent inhibition of specific binding, screened at 1 μM, read-out: Inhibition of ligand binding, Hist. H1.
The mark [7] stands for this setting: 0.1 nM [125I]Aminopotentidine, read-out: Histamine Binding H2, percent inhibition of specific binding.
The mark [8] stands for this setting: 1 μM compound, 0.1 nM [125I]Aminopotentidine, read-out: Histamine Binding H2, percent inhibition of specific binding.
Where [9] appears, read: […] [3H]Pyrilamine, read-out: Histamine Binding H1, percent inhibition of specific binding.
Setting [10] is: 1 μM compound, […] [3H]Pyrilamine, read-out: Histamine Binding H1, percent inhibition of specific binding.
[11] abbreviates: 1 μM compound, […] [3H]Pyrilamine.

SMILES strings stand for the structures. Read-outs that look alike come from different tables or passages of the source.

T2 sequence (P35367 whole entry): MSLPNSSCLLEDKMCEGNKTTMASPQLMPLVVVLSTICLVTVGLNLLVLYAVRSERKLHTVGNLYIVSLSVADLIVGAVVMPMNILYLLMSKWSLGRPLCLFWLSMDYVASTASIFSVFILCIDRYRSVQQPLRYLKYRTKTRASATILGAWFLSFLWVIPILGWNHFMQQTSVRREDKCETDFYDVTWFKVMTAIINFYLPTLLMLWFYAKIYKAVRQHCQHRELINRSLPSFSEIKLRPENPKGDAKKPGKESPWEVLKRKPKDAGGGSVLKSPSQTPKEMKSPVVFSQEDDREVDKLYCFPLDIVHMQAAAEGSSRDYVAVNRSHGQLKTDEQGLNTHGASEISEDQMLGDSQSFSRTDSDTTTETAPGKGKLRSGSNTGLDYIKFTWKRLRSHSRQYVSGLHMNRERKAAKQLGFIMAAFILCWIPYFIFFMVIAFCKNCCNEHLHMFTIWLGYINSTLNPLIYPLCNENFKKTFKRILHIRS
T1 sequence (P25021 whole entry): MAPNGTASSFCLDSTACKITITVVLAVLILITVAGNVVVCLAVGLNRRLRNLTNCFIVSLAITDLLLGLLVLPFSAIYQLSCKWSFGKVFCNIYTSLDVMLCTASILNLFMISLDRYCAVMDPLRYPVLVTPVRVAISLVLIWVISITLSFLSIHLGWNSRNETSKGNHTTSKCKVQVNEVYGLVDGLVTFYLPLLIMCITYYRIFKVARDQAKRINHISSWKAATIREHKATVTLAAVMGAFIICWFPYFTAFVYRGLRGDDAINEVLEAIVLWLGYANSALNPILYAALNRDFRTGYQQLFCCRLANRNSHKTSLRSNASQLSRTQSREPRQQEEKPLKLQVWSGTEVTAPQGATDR
T3 sequence (P14416 whole entry): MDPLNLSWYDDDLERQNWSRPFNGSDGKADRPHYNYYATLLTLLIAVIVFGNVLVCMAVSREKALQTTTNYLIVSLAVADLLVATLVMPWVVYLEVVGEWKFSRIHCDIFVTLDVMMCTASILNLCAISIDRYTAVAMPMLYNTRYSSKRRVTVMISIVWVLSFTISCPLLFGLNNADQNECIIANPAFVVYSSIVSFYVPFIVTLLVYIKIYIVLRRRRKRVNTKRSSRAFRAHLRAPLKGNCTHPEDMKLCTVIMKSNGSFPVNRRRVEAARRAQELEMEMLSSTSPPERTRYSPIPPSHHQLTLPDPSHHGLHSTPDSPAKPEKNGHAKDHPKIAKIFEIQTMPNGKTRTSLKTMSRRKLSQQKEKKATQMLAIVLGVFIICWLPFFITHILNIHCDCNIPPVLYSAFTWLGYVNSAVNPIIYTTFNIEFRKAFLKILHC

With `Cc1ccc(C(O)Cn2c3c(c4ccccc42)CN(C)CC3)cc1` (stereo not drawn) [Compound 7], the inhibition – broadly, the relative decrease from the control value, in per cent – at 1 µM in assay [1] (setting [5]) was 58%; in assay [2] (setting [6]) it was 47%.

Turning to `CCN1CCc2c(c3cc(C)ccc3n2CCc2ccc(C)cc2)C1` [Compound 26], the inhibition at 0.3 µM in assay [1] (setting [7]) was determined as 34%. Moreover, the inhibition at 1 µM was determined as 73% in assay [1] (setting [8]), 73% in assay [1] (setting [5]), 96% in assay [2] (setting [10]) and 96% in assay [2] (setting [6]). The inhibition at 0.03 µM in assay [2] (setting [9]) worked out at 67%. For the same molecule, in assay [2] (setting [9]), the inhibition at 0.1 µM worked out at 81%.

For the molecule `Cc1ccc2c(c1)c1c(n2CCc2ccccc2)CCN(C2CC2)C1` [Compound 35, 2-cyclopropyl-2,3,4,5-tetrahydro-8-methyl-5-phenethyl-1H-pyrido[4,3-b]indole], the inhibition at 1 µM came to 54% in assay [1] (setting [8]) and 99% in assay [2] (setting [10]).

Take `CCN1CCc2c(c3cc(C)ccc3n2CCc2ccccc2)C1` [Compound 37]: in assay [1] (setting [7]), the inhibition at 0.3 µM came out at 22%. Further, the inhibition at 1 µM in assay [1] (setting [8]) is 53%; in assay [1] (setting [5]), 53%; in assay [2] (setting [10]) it was 101%; in assay [2] (setting [6]), 101%. Besides, the inhibition at 0.03 µM in assay [2] (setting [9]) is 59%. Besides, the inhibition at 0.1 µM in assay [2] (setting [9]) came out at 78%.

`CN1CCc2c(c3cc(Cl)ccc3n2C[C@@](C)(O)c2ccc(F)cc2)C1` [Compound 110]: in assay [3], the “Inhibition of ligand binding, Dop. D2L” value was 35%.

As for `CCOC(=O)N1CCc2c(c3cc(C)ccc3n2CCc2cccnc2)C1` [Compound 217], the inhibition at 1 µM in assay [1] (setting [8]) is 13%; in assay [2] (setting [10]), -4%.

As to `CN1CCc2c(c3cc(Cl)ccc3n2CCc2n[nH]c(=S)n2C)C1(C)C` [Compound 218], in assay [1] (setting [8]), the inhibition at 1 µM came out at 34%. In addition, in assay [2] (setting [11]), the “Histamine Binding H1, percent inhibition of specific binding” value came out at 80%.

For `CN1Cc2c(n(CCc3n[nH]c(=S)n3C)c3ccc(C(F)(F)F)cc23)CC1(C)C` [Compound 219], the figures for the inhibition at 1 µM in assay [1] (setting [8]) and in assay [2] (setting [10]) were 71% and 89%, respectively.

On to `CN1CCc2c(c3cc(Cl)ccc3n2CCc2n[nH]c(=S)n2C)C1(C)C` [Compound 220], for which, in assay [1] (1 μM compound, 0.1 nM [125I]Aminopotentidine), the “Histamine Binding H2, percent inhibition of specific binding” value is 22%. For the same molecule, the “Histamine Binding H1, percent inhibition of specific binding” value in assay [2] (setting [11]) is 3%.

In the case of `FC(F)(F)c1ccc2c(c1)c1c(n2CCc2noc(-c3ccccc3)n2)CCN(C2CC2)C1` [Compound 222], the inhibition at 0.1 µM in assay [1] (0.1 μM compound, 0.1 nM [125I]Aminopotentidine, read-out: Histamine Binding H2, percent inhibition of specific binding) worked out at 89%; in assay [2] (setting [9]), 101%. Moreover, the inhibition at 1 µM in assay [1] (setting [8]) turned out to be 98%; in assay [2] (setting [10]), 103%. In addition, the inhibition at 0.01 µM in assay [2] (10 nM (0.01 μM) compound, […] [3H]Pyrilamine, read-out: Histamine Binding H1, percent inhibition of specific binding) stood at 85%.

As for `CN1Cc2c(n(CCc3noc(-c4ccccc4)n3)c3ccc(Cl)cc23)CC12CC2` [Compound 223], the figures for the inhibition at 1 µM in assay [1] (setting [8]) and in assay [2] (setting [10]) were 94% and 100%, respectively.

In the case of `Cc1ccc2c(c1)c1c(n2CCC(=O)N2CCC(NC(=O)OC(C)(C)C)CC2)CCN(C)C1` [Compound 226, tert-butyl 1-(3-(1,2,3,4-tetrahydro-2,8-dimethylpyrido[4,3-b]indol-5-yl)propanoyl)piperidin-4-ylcarbamate], the inhibition at 1 µM worked out at 96% in assay [1] (setting [8]) and 87% in assay [2] (setting [10]).

For the molecule `Cc1ccc2c(c1)c1c(n2CCc2ccc(C(=O)O)nc2)CCN(C)C1=O` [Compound 241], the inhibition at 1 µM in assay [1] (read-out: Histamine Binding H2, percent inhibition of specific binding) amounted to 11%; in assay [2] (read-out: Histamine Binding H1, percent inhibition of specific binding), 19%.

As to `CN1Cc2c(n(CCc3noc(-c4ccc(Cl)cc4)n3)c3ccc(Cl)cc23)CC12CC2` [Compound 242], the inhibition at 1 µM in assay [1] (setting [8]) was found to be 87%; in assay [2] (setting [10]), 94%.

As to `CN1CCc2c(c3ccccc3n2CCc2nc(-c3ccccc3)cs2)C1` [Compound C1-1], the “concentration at which glutamate-induced 45Ca2+ uptake into synaptosomes was increased” value in assay [4] is 50 to 100 µM. In addition, in assay [4] (0.1-0.5 μM), the “inhibition of glutamate-induced 45Ca2+ uptake into synaptosomes” value is recorded as around 13%. Also, the “glutamate-induced 45Ca2+ uptake into synaptosomes of rat cortex, % Ca of control (control-100%)” value in assay [4] (C 50 μM) came out at 126.9%. In addition, the “% Ca of control (control-100%), glutamate-induced 45Ca2+ uptake into synaptosomes” value in assay [4] (compound 0.1 μM) was determined as 85.5 ± 5.8%; in assay [4] (compound 0.5 μM) it was 86.9 ± 4.2%; in assay [4] (compound 1 μM), 100.3 ± 6.5%; in assay [4] (compound 5 μM) it was 98.8 ± 3.2%; in assay [4] (compound 10 μM) it was 91 ± 11.9%; in assay [4] (compound 50 μM) it was 126.9 ± 4.5%. Besides, the “% Ca of control (control-100%), glutamate-induced 45Ca2+ uptake into synaptosomes” value in assay [4] (compound 100 μM) is on record as 111.9 ± 11.31%. Further, the “Influence on memory in the test recognition new localization of known object” value in the assay on mice (Dose of Compound 0.05 mg/kg) is “+”; in the assay with mice (Dose of Compound 0.1 mg/kg), “+”; with mice (Dose of Compound 0.5 mg/kg) it was “−”; in the assay with mice (Dose of Compound 1.0 mg/kg), “+”. Also, the “activity on memory compared with dimebon (in words)” value with mice (comparison of effective doses) was “approximately two times higher”. Besides, the “time exploring the object in a new location, % of the total time” value in the assay with mice (mice, dose 0.05 mg/kg) was 61.8±8.4%; in the assay with mice (mice, dose 0.1 mg/kg), 56.0±6.9%; with mice (mice, dose 1 mg/kg), 61.5±8.9%. The “time exploring the object in the known position, % of the total time” value is 38.2±8.4% with mice (mice, dose 0.05 mg/kg); 42.7±6.9% in the assay on mice (mice, dose 0.1 mg/kg); 37.8±8.9% with mice (mice, dose 1 mg/kg). The “effect of the dose on exploration time / memory (in words)” value with mice (mice, dose 0.5 mg/kg) was “disappearance of the stimulating effect on memory”. In the assay on mice (mice, doses 0.05-1 mg/kg), the “overall effect on memory (in words)” value is recorded as “stimulating effect on memory”.

These data come from patent publication US9096591B2, “Tetracyclic compounds” (Medivation Technologies, Inc., priority 2007, dated 2015).
